Entries after “also recorded” stand apart in the source; their conditions may differ.
Columns and labels:
Format in all cases: in vivo, mouse
C57BL/6J mice = test: Blood count recovery after myelosuppressive 5FU chemotherapy
Protocol: The inventors used 5FU (250 mg/kg, 1 i.p.) for C57BL/6J mice, or 5FU 150 mg/kg (1 i.p.) for mice that had been previously transplanted. To assess blood count recovery, the inventors collected peripheral blood (50 μl) into EDTA-coated capillary tubes (Fisher Scientific). Differential blood counts were measured using an automated Bayer ADVIA 120 Multispecies Hematology Analyzer calibrated for murine blood (Bayer HealthCare).
The inventors treated cohorts of mice with 5FU (250 mg/kg) on day 0 and then with either the TGFβ-neutralizing antibody 1D11 (I) (10 mg/kg) or a non-targeted control antibody 13C4 (C) (10 mg/kg) on days 5, 7 and 9. The 1D11 and 13C4 antibodies were generously provided by Genzyme Corp., Framingham, Mass., USA. Mice were treated with 5FU (250 mg/kg) on day 0 and then received either LY364947 (1 mg/kg, i.p.) or an equal volume of PBS six times over a period of 9 days. Hematopoietic reconstitution was followed by monitoring peripheral blood counts and multidimensional flow cytometry on bone marrow and spleen cells, as indicated.

[1] = tested on: LKS+ HSPCs and LKS+SLAM cells; test: Bi-dimensional cell cycle analysis of BM HSPCs after 5FU; conditions: D15 after 5FU, 1 mg/kg IP 6 times over 9 days; vs 5FU only
Protocol: (§1) Mice were killed by CO2 asphyxiation and femur, tibia and humeri were dissected free of muscle and tendons and then crushed in DMEM using a mortar and pestle. The resulting cell suspension was filtered through a 70-μm filter and washed in PEB (2 mM EDTA, 0.2% BSA in PBS pH 7.4). Spleens were isolated and then minced prior to grinding through a 70-μm filter to generate single cell suspensions. Lineage negative (Lin^−) cells were purified using a biotinylated lineage cell detection cocktail (Miltenyi Biotec). Lineage depleted cells were then stained with streptavidin-Qdot 605 (eBioscience), Horizon V450-conjugated anti-CD117 (BD Biosciences), PECy7-conjugated Sca-1 (BioLegend), Alexa700-conjugated CD34 (BD Biosciences), APC-conjugated CD135 (Flk2) (BioLegend), and PerCP/Cy5.5-conjugated CD16/32 (FcR). Hematopoietic populations were identified as following: LT-HSCs, LKS^+ CD34^−Flk2^−; ST-HSCs, LKS^+ CD34^+ Flk2^−; MPPs, LKS^+ CD34^+ Flk2^+; CMPs, LKS^− CD34^+ FcRlow; GMPs, LKS^− CD34^+ FcR^+; and MEPs, LKS^− CD34^− FcR^− MEPs. DAPI was used to exclude dead cells during flow cytometric analysis. […] The cell cycle status of LKS^+SLAM cells was analyzed using this same strategy. Analysis gates were set based upon the fluorescence minus one (FMO) fluorophore. […]

LKS+ HSPCs = test: Multidimensional flow cytometry of BM HSPC regeneration after 5FU; conditions: 1 mg/kg IP 6 times over 9 days, vs control
Protocol: as §1

[2] = 5FU 250 mg/kg D0, 1 mg/kg IP 6 times over 9 days, vs PBS

c1ccc(-c2[nH]ncc2-c2ccnc3ccccc23)nc1 [LY364947]
PLT recovery (C57BL/6J mice; [2]): faster
WBC recovery (C57BL/6J mice; [2]): faster
blood counts recovery (C57BL/6J mice; after 5FU, vs vehicle control): recovered blood counts more rapidly
cycling of LKS+ and LKS+SLAM cells [1]: prolonged cycling; also recorded: persisted in cycle
expansion of LKS+SLAM cells (LKS+ HSPCs): greater expansion

— patent US9782452B2, “Methods for stimulating hematopoietic recovery by inhibiting TGFβ signaling” (Cornell University, priority 2011, dated 2017)
